Reference: PMC6078987, “Molecular insights into antibiotic resistance - how a binding protein traps albicidin” (Nature Communications, 2018)
≈ marks a conversion by molar mass, not a printed value. Entries after “also recorded” stand apart in the source; their conditions may differ.

Assays:
DNA gyrase = target: DNA gyrase; set-up: method as in PMID 17074789; settings: read-out: half maximal inhibitory concentration (IC50); cited from earlier work
[1] = tested on: AlbAS in competition with gyrase construct GyrBA59; assay: NMR-based in vitro competition experiment of AlbAS and GyrBA59; format: binding, E. coli; settings: 30 µM each of GyrBA59, AlbAS and albicidin; MgCl2, ATP, pBR322
Protocol: For the competition experiment with the DNA gyrase construct GyrBA59, 1.7 mM ATP was incubated with 3.4 mM MgCl2 for 10 min. Subsequently, 30 µM GyrBA59 and 3 µg supercoiled pBR322 plasmid DNA (Inspiralis) were added and incubated for another 10 min. Finally, 30 µM ^15N-labeled AlbAS were added to the mixture followed by 30 µM albicidin (10% D2O and 5% DMSO final concentration). Owing to the low protein concentrations (to achieve a 1:1 ratio of gyrase and AlbAS), a ^1H-^15N band-selective optimized flip-angle short-transient heteronuclear multiple quantum coherence (SOFAST HMQC)[44] experiment was performed. The ^1H-^15N SOFAST HMQC was recorded with 2048 scans and with acquisition times of 45 and 38 ms for the ^1H and ^15N dimensions, respectively. Measurements were performed at 303.2 K. The control experiment was performed under the same conditions but without the addition of MgCl2, ATP, pBR322 plasmid DNA, and GyrBA59.

E. coli DH5α = assay: Agar diffusion assay; format: cell-based
Protocol: To verify the neutralizing ability of AlbAS, AlbAL, AlbASM, AlbASCTD, or AlbASNTD against different compounds, agar diffusion assays with the respective compounds were performed. An overnight culture of E. coli DH5α was diluted to an OD600 of 0.05 with 0.75% LB-agar. The protein-albicidin reaction mixture consisted of a 1:1 mixture of 40 μM albicidin (or derivatives) with 40 μM protein (either AlbAS or its variants AlbAL, AlbASM, AlbASNTD, and AlbASCTD). The mixture was incubated for 20 min at room temperature in the dark. Reaction mixtures of 30 μL were transferred in triplicates of 2 mm holes on the inoculated agar plate. The plates were evaluated concerning growth-inhibition zone after incubation for 18 h at 37 °C.

Escherichia coli = tested on: Escherichia coli; set-up: method as in PMID 17074789, PMID 25504839; settings: cited from earlier work
GyrBA59 = target: T1, GyrBA59 (Escherichia coli, UniProt P0AES4+P0AES6); assay: DNA cleavage assay; format: biochemical, E. coli; settings: 5 nM – 5120 nM albicidin, pBR322, 1.4 mM ATP
T1 construct: combining the full-length GyrB and a C-terminally truncated GyrA segment (59 kDa); a C-terminally truncated GyrA segment (59 kDa); 6x His (TEV-cleavable) (N, cleaved yes); made in house; host or cells: E. coli BL21 DE3, pET-28a(+)
T1 sequence (P0AES4 whole entry, looked up, other chains not shown, the tested form may be a part): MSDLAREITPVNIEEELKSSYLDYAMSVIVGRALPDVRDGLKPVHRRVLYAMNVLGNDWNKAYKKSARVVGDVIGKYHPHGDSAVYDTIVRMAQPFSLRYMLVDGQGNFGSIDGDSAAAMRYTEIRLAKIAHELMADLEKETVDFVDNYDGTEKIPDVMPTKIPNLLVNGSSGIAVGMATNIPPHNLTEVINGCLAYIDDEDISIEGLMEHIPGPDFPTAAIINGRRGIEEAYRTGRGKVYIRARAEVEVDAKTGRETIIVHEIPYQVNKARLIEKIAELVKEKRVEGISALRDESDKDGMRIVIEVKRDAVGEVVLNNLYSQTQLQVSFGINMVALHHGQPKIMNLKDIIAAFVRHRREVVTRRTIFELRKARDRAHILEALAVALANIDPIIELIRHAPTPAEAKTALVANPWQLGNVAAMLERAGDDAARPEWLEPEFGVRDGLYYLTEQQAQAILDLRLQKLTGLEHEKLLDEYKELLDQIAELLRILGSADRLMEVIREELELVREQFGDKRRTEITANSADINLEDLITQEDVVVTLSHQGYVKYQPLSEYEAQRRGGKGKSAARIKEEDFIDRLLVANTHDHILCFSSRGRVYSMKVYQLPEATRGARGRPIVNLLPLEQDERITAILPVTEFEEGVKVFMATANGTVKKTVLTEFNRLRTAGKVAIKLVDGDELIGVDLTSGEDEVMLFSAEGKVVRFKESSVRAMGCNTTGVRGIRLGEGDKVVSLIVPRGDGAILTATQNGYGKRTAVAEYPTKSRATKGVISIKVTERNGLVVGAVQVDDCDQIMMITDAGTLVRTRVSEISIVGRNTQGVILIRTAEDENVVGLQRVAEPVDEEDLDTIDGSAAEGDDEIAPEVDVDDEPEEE
Protocol: E. coli DNA gyrase cleavage assays were performed by incubating 250 ng of supercoiled pBR322 plasmid DNA (Inspiralis, Norwich, UK) with 25 nM of GyrBA59 protein in 20 µL reactions containing 35 mM Tris-HCl (pH 8.0), 24 mM KCl, 4 mM MgCl2, 2 mM DTT, 1.8 mM spermidine, 1.4 mM ATP, 6.5% (w/v) glycerol, and 0.1 mg mL^−1 bovine serum albumin in the presence or absence of various concentrations of albicidin (final concentration of 5% dimethyl sulfoxide (DMSO), incubation at 37 °C for 30 min). Linearized DNA was released by further incubation with 0.2% (w/v) SDS and 0.1 mg mL^−1 proteinase K (Promega, Madison, USA) at 37 °C for 30 min. The reaction was stopped by addition of 20 µL of reaction stop buffer (STEB buffer) (40% (w/v) sucrose, 100 mM Tris-HCl (pH 8.0), 10 mM EDTA, and 0.5 mg mL^−1 Bromophenol Blue) and precipitation using 30 µL of chloroform/isoamyl alcohol 24:1 (v:v). Samples were analyzed by electrophoresis in 1% w/v agarose gel containing 0.5 […] followed by photography under ultraviolet illumination.

## COc1c(NC(=O)c2ccc(NC(=O)c3ccc(NC(=O)[C@H](CC#N)NC(=O)c4ccc(NC(=O)/C(C)=C/c5ccc(O)cc5)cc4)cc3)c(OC)c2O)ccc(C(=O)O)c1O [albicidin]
DNA gyrase
  IC50: 0.04 µM
[1]
  competition between AlbAS and GyrBA59 for the ligand (in words): AlbAS fully populated the albicidin-bound state
E. coli DH5α; 40 µM compound pre-incubated with 40 µM AlbAL
  neutralization of antibacterial activity by AlbAL: albicidin-neutralizing effect
E. coli DH5α; 40 µM compound pre-incubated with 40 µM AlbAS
  neutralization of antibacterial activity by AlbAS: albicidin-neutralizing effect
E. coli DH5α; 40 µM compound with 40 µM AlbASCTD
  neutralization of antibacterial activity by AlbASCTD: failed to suppress the antibacterial effects; also recorded: not able to neutralize albicidin
E. coli DH5α; 40 µM compound with 40 µM AlbASM
  neutralization of antibacterial activity by AlbASM (N75A, R181A, Q205A): not capable of efficiently suppressing the antibacterial activity
E. coli DH5α; 40 µM compound with 40 µM AlbASNTD
  neutralization of antibacterial activity by AlbASNTD: failed to suppress the antibacterial effects; also recorded: not able to neutralize albicidin
Escherichia coli
  MIC: 0.063 mg/L (≈ 0.0747 µM)
GyrBA59
  stabilization of DNA cleavage complex (in words): stabilizing the cleavage complex
